From ChEMBL document CHEMBL5385890, “A JAK tyrosine kinase and pseudokinase Co-inhibition strategy combines enhanced potency and on-demand activation” (Eur J Med Chem, 2023)
Activity calls are given as the source filed them. The calls are words filed in the database; no cut-off is given here.

Key:
HEL [1] = assay: Cytotoxicity against HEL cells assessed as inhibition of cell growth; type: functional, cell-based; conditions: Homo sapiens
HEL [2] = assay: Inhibition of JAK/STAT phosphorylation in HEL cells assessed as reduction in STAT3 phosphorylation at 3 uM incubated under hypoxic condition by Western blot analysis; type: cell-based; conditions: Homo sapiens
Mus musculus [3] = assay: In vivo inhibition of JAK/STAT signalling in Balb/c nude mouse xenografted with HEL cells assessed as reduction in STAT5 phosphorylation in heart at 40 to 80 mg/kg, ip administered for 14 consecutive days by Western blot analysis; type: functional, organism-based; conditions: dose 40-80 mg/kg, time 14.0 day
Mus musculus [4] = assay: In vivo inhibition of JAK/STAT signalling in Balb/c nude mouse xenografted with HEL cells assessed as reduction in STAT3 phosphorylation in spleen at 40 to 80 mg/kg, ip administered for 14 consecutive days by Western blot analysis; type: functional, organism-based; conditions: dose 40-80 mg/kg, time 14.0 day
[5] = Stability of compound in PBS measured after 24 hrs; type: physicochemical; conditions: buffer, 24 h
HEL [6] = assay: Inhibition of JAK/STAT phosphorylation in HEL cells assessed as reduction in STAT3 phosphorylation at 3 uM incubated under normoxic condition by Western blot analysis; type: cell-based; conditions: Homo sapiens
HEL [7] = assay: Inhibition of JAK/STAT phosphorylation in HEL cells assessed as reduction in STAT5 phosphorylation at 3 uM incubated under normoxic condition by Western blot analysis; type: cell-based; conditions: Homo sapiens
Mus musculus [8] = assay: In vivo inhibition of JAK/STAT signalling in Balb/c nude mouse xenografted with HEL cells assessed as reduction in STAT3 phosphorylation in kidney at 40 to 80 mg/kg, ip administered for 14 consecutive days by Western blot analysis; type: functional, organism-based; conditions: dose 40-80 mg/kg, time 14.0 day
[9] = Toxicity in Balb/c nude mouse xenografted with HEL cells assessed as reduction in body weight at 40 to 80 mg/kg, ip administered for 14 consecutive days; type: organism-based; conditions: in vivo, 336 h, dose 40-80 mg/kg, time 14 day
[10] = Stability of compound in mouse plasma measured after 24 hrs; type: ADME, cell-free; conditions: 24 h
HEL [11] = assay: Cytotoxicity against HEL cells assessed as inhibition of cell growth incubated under hypoxic condition; type: functional, cell-based; conditions: Homo sapiens
Mus musculus [12] = assay: In vivo inhibition of JAK/STAT signalling in Balb/c nude mouse xenografted with HEL cells assessed as reduction in STAT3 phosphorylation in heart at 40 to 80 mg/kg, ip administered for 14 consecutive days by Western blot analysis; type: functional, organism-based; conditions: dose 40-80 mg/kg, time 14.0 day
Mus musculus [13] = assay: In vivo inhibition of JAK/STAT signalling in Balb/c nude mouse xenografted with HEL cells assessed as reduction in STAT5 phosphorylation in lung at 40 to 80 mg/kg, ip administered for 14 consecutive days by Western blot analysis; type: functional, organism-based; conditions: dose 40-80 mg/kg, time 14.0 day
HEL [14] = assay: Cytotoxicity against HEL cells assessed as inhibition of cell growth incubated under normoxic condition; type: functional, cell-based; conditions: Homo sapiens
Mus musculus [15] = assay: In vivo inhibition of JAK/STAT signalling in Balb/c nude mouse xenografted with HEL cells assessed as reduction in STAT3 phosphorylation in liver at 40 to 80 mg/kg, ip administered for 14 consecutive days by Western blot analysis; type: functional, organism-based; conditions: dose 40-80 mg/kg, time 14.0 day
HEL [16] = assay: Inhibition of JAK/STAT phosphorylation in HEL cells assessed as reduction in STAT5 phosphorylation at 3 uM incubated under hypoxic condition by Western blot analysis; type: cell-based; conditions: Homo sapiens
[17] = Stability of compound in human plasma measured after 24 hrs; type: ADME, cell-free; conditions: 24 h
[18] = Prodrug release in HEL cells assessed as N-tert-butyl-3-[[5-methyl-2-(4-piperazin-1-ylanilino)pyrimidin-4-yl]amino]benzenesulfonamide formation at 1 uM incubated for 24 hrs under hypoxic condition by LC-MS/MS analysis; type: ADME, cell-based; conditions: human
[19] = Prodrug release in PBS buffer in presence of NADH and nitroreductase assessed as N-tert-butyl-3-[[5-methyl-2-(4-piperazin-1-ylanilino)pyrimidin-4-yl]amino]benzenesulfonamide formation at 10 uM and measured after 120 mins under hypoxic condition by LC-MS/MS analysis; type: ADME; conditions: 2 h
Mus musculus [20] = assay: In vivo inhibition of JAK/STAT signalling in Balb/c nude mouse xenografted with HEL cells assessed as reduction in STAT5 phosphorylation in spleen at 40 to 80 mg/kg, ip administered for 14 consecutive days by Western blot analysis; type: functional, organism-based; conditions: dose 40-80 mg/kg, time 14.0 day
Mus musculus [21] = assay: In vivo inhibition of JAK/STAT signalling in Balb/c nude mouse xenografted with HEL cells assessed as reduction in STAT5 phosphorylation in kidney at 40 to 80 mg/kg, ip administered for 14 consecutive days by Western blot analysis; type: functional, organism-based; conditions: dose 40-80 mg/kg, time 14.0 day
Mus musculus [22] = assay: In vivo inhibition of JAK/STAT signalling in Balb/c nude mouse xenografted with HEL cells assessed as reduction in STAT3 phosphorylation in lung at 40 to 80 mg/kg, ip administered for 14 consecutive days by Western blot analysis; type: functional, organism-based; conditions: dose 40-80 mg/kg, time 14.0 day
[23] = Prodrug release in PBS buffer in presence of NADH and nitroreductase assessed as 3-cyclopropyl-1-(3-{5-[(morpholin-4-yl)methyl]-1H-1,3-benzodiazol-2-yl}-1H-pyrazol-4-yl)urea formation at 10 uM measured after 120 mins under hypoxic condition by LC-MS/MS analysis; type: ADME; conditions: 2 h
HEL [24] = assay: Antitumor activity against HEL cells xenografted in Balb/c nude mouse assessed as tumor growth inhibition at 40 mg/kg, ip administered once daily for 14 consecutive days relative to control; type: functional, Homo sapiens; conditions: 336 h, time 14 day, read-out: TGI
[25] = Prodrug release in HEL cells assessed as 3-cyclopropyl-1-(3-{5-[(morpholin-4-yl)methyl]-1H-1,3-benzodiazol-2-yl}-1H-pyrazol-4-yl)urea formation at 1 uM incubated for 24 hrs under hypoxic condition by LC-MS/MS analysis; type: ADME, cell-based; conditions: human
HEL [26] = assay: Antitumor activity against HEL cells xenografted in Balb/c nude mouse assessed as induction of apoptosis in tumor at 40 to 80 mg/kg, ip administered once daily for 14 consecutive days by TUNEL assay relative to control; type: functional, organism-based; conditions: Homo sapiens, dose 40-80 mg/kg, time 14.0 day
HEL [27] = assay: Antitumor activity against HEL cells xenografted in Balb/c nude mouse assessed as tumor growth inhibition at 80 mg/kg, ip administered once daily for 14 consecutive days relative to control; type: functional, Homo sapiens; conditions: 336 h, time 14 day, read-out: TGI
[28] = Cytotoxicity against HUVEC cells assessed as inhibition of cell growth; type: toxicity, cell-based; conditions: human
Mus musculus [29] = assay: In vivo inhibition of JAK/STAT signalling in Balb/c nude mouse xenografted with HEL cells assessed as reduction in STAT5 phosphorylation in liver at 40 to 80 mg/kg, ip administered for 14 consecutive days by Western blot analysis; type: functional, organism-based; conditions: dose 40-80 mg/kg, time 14.0 day
[30] = Cytotoxicity against HUVEC cells assessed as inhibition of cell growth incubated in presence of N-tert-butyl-3-[[5-methyl-2-(4-piperazin-1-ylanilino)pyrimidin-4-yl]amino]benzenesulfonamide; conditions: human

C[C@@H]1CCN(C(=O)CC#N)C[C@@H]1N(C)c1ncnc2[nH]ccc12 [TOFACITINIB]
IC50 (HEL [1]): 3.83 µM

N#CC[C@H](C1CCCC1)n1cc(-c2ncnc3[nH]ccc23)cn1 [RUXOLITINIB]
IC50 (HEL [1]): 7.46 µM

Cc1cc(COC(=O)N2CCN(c3ccc(Nc4ncc(C)c(Nc5cccc(S(=O)(=O)NC(C)(C)C)c5)n4)cc3)CC2)c(OCc2cnc([N+](=O)[O-])n2C)c(COC(=O)n2cc(NC(=O)NC3CC3)c(-c3nc4cc(CN5CCOCC5)ccc4[nH]3)n2)c1
inhibition (HEL [2]): Active
inhibition (Mus musculus [3]): inactive
inhibition (Mus musculus [4]): inactive
Stability [5]: Stable
inhibition (HEL [6]): inactive
inhibition (HEL [7]): inactive
inhibition (Mus musculus [8]): inactive
Activity [9]: Non-Toxic
Stability [10]: Stable
IC50 (HEL [11]): 3.1 µM
inhibition (Mus musculus [12]): inactive
inhibition (Mus musculus [13]): inactive
IC50 (HEL [14]): > 200 µM
inhibition (Mus musculus [15]): inactive
inhibition (HEL [16]): Active
Stability [17]: Stable
Drug metabolism [18]: Metabolite_Detected
Drug metabolism [19]: 6.57 µM
inhibition (Mus musculus [20]): inactive
inhibition (Mus musculus [21]): inactive
inhibition (Mus musculus [22]): inactive
Drug metabolism [23]: 6.49 µM
inhibition in vivo at 40 mg/kg (HEL [24]): 59.8%
Drug metabolism [25]: Metabolite_Detected
Activity (HEL [26]): Active
inhibition in vivo at 80 mg/kg (HEL [27]): 88.9%
IC50 [28]: 84.4 µM
inhibition (Mus musculus [29]): inactive

O=C(Nc1c[nH]nc1-c1nc2cc(CN3CCOCC3)ccc2[nH]1)NC1CC1 [AT-9283]
IC50 [30]: 1.76 µM
IC50 [28]: 1.77 µM
